Measured values from patent US9809585B2, “Fluorinated 2-arylbenzo heterocyclic compound with high affinity to Aβ 946; plaques and containing chiral side chain substituent, and preparation method and usage thereof” (BEIJING ZHIBO BIO-MEDICAL TECHNOLOGY CO.,LTD, priority 2014, dated 2017).
One block for each compound: values may come before it.

Experiments:
protein polymer Aβ1-42 = molecular target: T1, protein polymer Aβ1-42 (Homo sapiens, UniProt P05067); assay: Competitive binding experiment (Ki assay) against [125I]IMPY; details: read-out: Ki (inhibition constant)
T1 construct: A receptor Aβ1-42 protein is prepared by an established method
T1 sequence (P05067 672-713 limits assumed): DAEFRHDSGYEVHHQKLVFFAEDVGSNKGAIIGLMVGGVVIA
Experimental: Competitive binding experiment (Ki assay): Put a protein polymer Aβ1-42 of a certain concentration and a radioactive ligand [^125I] […] (5) A glass fiber filter is soaked in a PBS solution containing 0.1% (volume fraction) of polyethyleneimine for 0.5 h. (6) Add 100 μL of a solution of a compound to be tested and of different concentrations, 100 μL of the [^125I] […] Seal the tub with parafilm and swirl it. (7) Shake the tube in a water bath constantly at 37° C. and maintain the incubation for 2 h. (8) Collect the reaction solution with a multi-phase cell collector. Rinse the collected solution with the PBS for three times, 3 mL for each rinse. (9) Count with a γ counter. (10) Process the data.

[1] = In-vivo biodistribution experiment on normal mice; design: species or system mice (ICR, male); details: for Bones radioactivity: tail vein injection
Experimental: The in-vivo pharmacokinetic properties of mice have been studied with the in-vivo biodistribution experiment, especially the absorption by the primitive brain and the removal from the brain.
Inject 5-10 μCi of a labeled compound (100 μL of a physiological saline solution containing 5% of ethanol) into normal mice (ICR, male, 20-22 g) (n=5) by tail vein injection. The mice are decapitated respectively 2 minutes, 10 minutes, 30 minutes and 60 minutes after the injection. Dissect the mice and take out the relevant organs. Measure the moisture content and the radioactivity amount. The measurement values represent the percentage of the radioactivity amount in an organ (% ID/organ) and the percentage of the radioactivity amount in the organ of one gram (% ID/g).

SMILES: CNc1ccc(-c2nc3ccc(OC[C@@H](O)CF)cc3s2)cc1 [Compound 14r]
Ki (protein polymer Aβ1-42): 27.2 ± 2.9 nM

SMILES: CNc1ccc(-c2nc3ccc(OC[C@H](O)CF)cc3s2)cc1 [Compound 14s]
Ki (protein polymer Aβ1-42): 26 ± 6.5 nM

SMILES: CN(C)c1ccc(-c2nc3ccc(OC[C@@H](O)CF)cc3s2)cc1 [Compound 15r]
Ki (protein polymer Aβ1-42): 3.2 ± 1.1 nM

SMILES: CN(C)c1ccc(-c2nc3ccc(OC[C@H](O)CF)cc3s2)cc1 [Compound 15s]
Ki (protein polymer Aβ1-42): 3.7 ± 1.1 nM

SMILES: CNc1ccc(-c2nc3ccc(OC[C@@H](O)CF)cc3s2)cn1 [Compound 16r]
Ki (protein polymer Aβ1-42): 9.9 ± 2.8 nM

SMILES: CNc1ccc(-c2nc3ccc(OC[C@H](O)CF)cc3s2)cn1 [Compound 16s]
Ki (protein polymer Aβ1-42): 45.4 ± 11.8 nM

SMILES: CN(C)c1ccc(-c2nc3ccc(OC[C@@H](O)C[18F])cc3s2)cc1 [Compound [^18F]15r]
Bones radioactivity ([1]; 2 min.): 2.43 ± 0.53 % ID/g
Bones radioactivity ([1]; 10 min): 2.31 ± 0.26 % ID/g
Bones radioactivity ([1]; 30 min): 1.42 ± 0.27 % ID/g
Bones radioactivity ([1]; 1 h): 1.12 ± 0.59 % ID/g

SMILES: CN(C)c1ccc(-c2nc3ccc(OC[C@H](O)C[18F])cc3s2)cc1 [Compound [^18F]15s]
Bones radioactivity ([1]; 2 min.): 2.31 ± 0.71 % ID/g
Bones radioactivity ([1]; 10 min): 1.82 ± 0.39 % ID/g
Bones radioactivity ([1]; 30 min): 1.45 ± 0.48 % ID/g
Bones radioactivity ([1]; 1 h): 1.08 ± 0.38 % ID/g

SMILES: CNc1ccc(-c2nc3cc(OC[C@@H](O)C[18F])ccc3o2)cc1 [Compound [^18F]28r]
Bones radioactivity ([1]; 2 min.): 1.41 ± 0.29 % ID/g
Bones radioactivity ([1]; 10 min): 1.79 ± 0.21 % ID/g
Bones radioactivity ([1]; 30 min): 1.19 ± 0.15 % ID/g
Bones radioactivity ([1]; 1 h): 3.05 ± 0.86 % ID/g

SMILES: CNc1ccc(-c2nc3cc(OC[C@H](O)C[18F])ccc3o2)cc1 [Compound [^18F]28s]
Bones radioactivity ([1]; 2 min.): 1.63 ± 0.44 % ID/g
Bones radioactivity ([1]; 10 min): 0.77 ± 0.11 % ID/g
Bones radioactivity ([1]; 30 min): 0.52 ± 0.16 % ID/g
Bones radioactivity ([1]; 1 h): 0.74 ± 0.13 % ID/g

SMILES: CN(C)c1ccc(-c2nc3cc(OC[C@@H](O)C[18F])ccc3o2)cc1 [Compound [^18F]29r]
Bones radioactivity ([1]; 2 min.): 2.12 ± 0.60 % ID/g
Bones radioactivity ([1]; 10 min): 1.24 ± 0.40 % ID/g
Bones radioactivity ([1]; 30 min): 1.36 ± 0.41 % ID/g
Bones radioactivity ([1]; 1 h): 1.93 ± 0.77 % ID/g

SMILES: CN(C)c1ccc(-c2nc3cc(OC[C@H](O)C[18F])ccc3o2)cc1 [Compound [^18F]29s]
removal from the brain [1]: quickly removed from the brain of normal mice
ratio of the absorption in 2 minutes to that in 60 minutes (brain) ([1]; brain): 27.8
Bones radioactivity ([1]; 2 min.): 2.06 ± 0.45 % ID/g
Bones radioactivity ([1]; 10 min): 0.99 ± 0.35 % ID/g
Bones radioactivity ([1]; 30 min): 0.85 ± 0.30 % ID/g
Bones radioactivity ([1]; 1 h): 1.13 ± 0.28 % ID/g

Further lines, results first:

Ki (protein polymer Aβ1-42): 11.1 ± 5.4 nM
SMILES: CN(C)c1ccc(-c2nc3ccc(OC[C@@H](O)CF)cc3s2)cn1 [Compound 17r]

Ki (protein polymer Aβ1-42): 27.2 ± 7.1 nM
SMILES: CN(C)c1ccc(-c2nc3ccc(OC[C@H](O)CF)cc3s2)cn1 [Compound 17s]

Ki (protein polymer Aβ1-42): 129 ± 40.2 nM
SMILES: CNc1ccc(-c2nc3ccc(OC[C@@H](O)CF)cc3o2)cc1 [Compound 18r]

Ki (protein polymer Aβ1-42): 103 ± 18.6 nM
SMILES: CNc1ccc(-c2nc3ccc(OC[C@H](O)CF)cc3o2)cc1 [Compound 18s]

Ki (protein polymer Aβ1-42): 10.8 ± 2.6 nM
SMILES: CN(C)c1ccc(-c2nc3ccc(OC[C@@H](O)CF)cc3o2)cc1 [Compound 19r]

Ki (protein polymer Aβ1-42): 11 ± 1.5 nM
SMILES: CN(C)c1ccc(-c2nc3ccc(OC[C@H](O)CF)cc3o2)cc1 [Compound 19s]

Ki (protein polymer Aβ1-42): 85.3 ± 5.2 nM
SMILES: CNc1ccc(-c2nc3cc(OC[C@@H](O)CF)ccc3o2)cc1 [Compound 28r]

Ki (protein polymer Aβ1-42): 67.3 ± 5.5 nM
SMILES: CNc1ccc(-c2nc3cc(OC[C@H](O)CF)ccc3o2)cc1 [Compound 28s]

Ki (protein polymer Aβ1-42): 7.6 ± 2.8 nM
SMILES: CN(C)c1ccc(-c2nc3cc(OC[C@@H](O)CF)ccc3o2)cc1 [Compound 29r]

Ki (protein polymer Aβ1-42): 15.5 ± 3.2 nM
SMILES: CN(C)c1ccc(-c2nc3cc(OC[C@H](O)CF)ccc3o2)cc1 [Compound 29s]

Ki (protein polymer Aβ1-42): 187 ± 39 nM
SMILES: CNc1ccc(-c2nc3cc(OC[C@@H](O)CF)ccc3o2)cn1 [Compound 30r]

Ki (protein polymer Aβ1-42): 196 ± 49.1 nM
SMILES: CNc1ccc(-c2nc3cc(OC[C@H](O)CF)ccc3o2)cn1 [Compound 30s]

Ki (protein polymer Aβ1-42): 27.2 ± 6.3 nM
SMILES: CN(C)c1ccc(-c2nc3cc(OC[C@@H](O)CF)ccc3o2)cn1 [Compound 31r]

Ki (protein polymer Aβ1-42): 57.4 ± 7.6 nM
SMILES: CN(C)c1ccc(-c2nc3cc(OC[C@H](O)CF)ccc3o2)cn1 [Compound 31s]
